Where two headings read alike, the source gives them in different places.
Key:
myocytes = assay: Myocyte contractility assay (fractional shortening, edge detection); type: cell-based, Sprague-Dawley rats; conditions: 5 μM, adult rat myocytes, 5 min perfusion, 5 cells tested
Method: Adult male Sprague-Dawley rats were anesthetized and the hearts were quickly excised, rinsed and the ascending aorta was cannulated. Continuous retrograde perfusion was initiated on the hearts at a perfusion pressure of 60 cm H2O. Hearts were first perfused with a nominally Ca^2+-free modified Krebs solution of the following composition: 113 mM NaCl, 4.7 mM KCl, 0.6 mM KH2PO4, 0.6 mM Na2HPO4, 1.2 mM MgSO4, 12 mM NaHCO3, 10 mM KHCO3, 30 mM taurine, 5.5 mM glucose and 10 mM Hepes (all Sigma). This medium is not recirculated and is continually aerated with a 95% O2/5% CO2 mixture. […]
Aliquots of myocytes in Tyrode's buffer were placed in perfusion chambers (series 20 RC-27NE; Warner Instruments) complete with heating platforms. […] Contractility of the myocytes and contraction and relaxation velocities were then recorded using edge detection.
Five or more individual myocytes were tested per compound from two or more different myocyte preparations. […] These average transients were analyzed using the IonWizard software (IonOptix) to determine changes in diastolic length and fractional shortening. Fractional shortening was calculated as: ((resting length−length at peak contraction) divided by the resting length). The percent change in fractional shortening from baseline was calculated as: ((post-dose fractional shortening/basal fractional shortening)*100). […]

[1] = test system: Rat Cardiac Contractility; assay: Echocardiography assessment of acute pharmacodynamic effect in rat cardiac contractility; type: in vivo, Sprague Dawley rats
Method: Assessment of in vivo cardiac function by echocardiography was performed in male Sprague Dawley rats under isoflurane (1-3%) anesthesia. 2-D M-mode images of the left ventricle were acquired in the parasternal long-axis view before, during, and after administration of compounds by continuous IV infusion or oral gavage. In vivo fractional shortening was determined by M-mode image analysis with the following calculation: ((End diastolic diameter—end systolic diameter)/end diastolic diameter×100). For continuous IV infusion experiments, three pre-dose baseline M-mode images were taken at 1 minute intervals prior to infusion of compound. Compounds were formulated in 50% Propylene Glycol (PG): 16% Captisol: 10% dimethylacetamide (DMA) and delivered via a jugular vein catheter at the rate of 1 mL/kg/h. During infusion, M-mode images were taken at 5 minute intervals. The infusion stopped when fractional shortening reached up to a 60% reduction from baseline. Blood samples were taken to determine the plasma concentration of the compounds. Data was reported as an estimated IC50 value, which is the concentration at which fractional shortening is 50% of the pre-dose baseline contractility.
For oral dosing studies, three pre-dose baseline M-Mode images were taken at 1 minute intervals prior to compound administration. […] Rats were lightly anesthetized for M-Mode echocardiography measurements at select time points over a 24 hour period. Different dose levels were evaluated. The compound effect on cardiac fractional shortening at the highest dose evaluated is presented below as a percent reduction of baseline fractional shortening (=100%).
Concurrent with echocardiography measurements, blood samples were taken to determine the corresponding compound plasma concentration.

[2] = Dynamic Vapor Sorption (DVS); type: physicochemical; conditions: 5-90% relative humidity (RH) range, 25° C.
Method: DVS analyses were carried out TA Instruments Q5000 Dynamic Vapor Sorption analyzer. The instrument was calibrated with standard weights and a sodium bromide standard for humidity. Samples were analyzed at 25° C. with a maximum equilibration time of 60 minutes in 10% relative humidity (RH) steps from 5 to 95% RH (adsorption cycle) and from 95 to 5% RH (desorption cycle).
Polymorphic Form I of (R)-N-(5-(5-ethyl-1,2,4-oxadiazol-3-yl)-2,3-dihydro-1H-inden-1-yl)-1-methyl-1H-pyrazole-4-carboxamide was analyzed by XRPD, DSC, TGA, and DVS. […] As shown in the TGA graph, a weight loss of 0.2% below 200° C., was observed.

[3] = Polymorph screening, heat/humidity exposure of Form I (XRPD); type: physicochemical
Method: Polymorphic Form I of (R)-N-(5-(5-ethyl-1,2,4-oxadiazol-3-yl)-2,3-dihydro-1H-inden-1-yl)-1-methyl-1H-pyrazole-4-carboxamide was mixed with various solvents under various conditions. Samples generated were analyzed by XRPD.

[4] = Competitive slurry experiments between Form I and Form IV; type: physicochemical
Text: The results of the competitive slurry experiments are provided below in Table 7.

CCc1nc(-c2ccc3c(c2)CC[C@H]3NC(=O)c2cnn(C)c2)no1 [(R)-N-(5-(5-ethyl-1,2,4-oxadiazol-3-yl)-2,3-dihydro-1H-inden-1-yl)-1-methyl-1H-pyrazole-4-carboxamide]
% FS (% reduction from baseline) ± SEM (myocytes): 67.4 ± −5.8% | FS (% reduction from baseline) at 1-2 h post dose (Mean ± S.D.) ([1]; 2 mg/kg single dose by oral gavage, rat, 1-2 h post dose): 43 ± 9% | FS (% reduction from baseline) at 4 h post dose (Mean ± S.D.) ([1]; 2 mg/kg single dose by oral gavage, rat, 4 h post dose): 31 ± 9% | IC50 ([1]; continuous IV infusion, rats under isoflurane, read-out: estimated IC50 (plasma concentration at which fractional shortening is 50% of pre-dose baseline contractility), Mean±S.D.): 7.2 ± 0.2 µM | estimated IC10 (plasma concentration, fractional shortening) ([1]; oral dosing studies, rat): 0.8 µM | IC50 ([1]; oral dosing studies, rat, read-out: estimated IC50 (plasma concentration, fractional shortening)): 7.9 µM

CCc1nc(-c2ccc3c(c2)CC[C@H]3NC(=O)c2cnn(C)c2)no1 [Form I, (R)-N-(5-(5-ethyl-1,2,4-oxadiazol-3-yl)-2,3-dihydro-1H-inden-1-yl)-1-methyl-1H-pyrazole-4-carboxamide]
moisture uptake as determined by DVS [2]: 0.60 % w/w | XRPD form after heat/humidity exposure ([3]; none, RT, 0% RH): Form I | XRPD form after heat/humidity exposure ([3]; water vapor, 40° C., 75% RH): Form I | XRPD form after heat/humidity exposure ([3]; water vapor, RT, 59% RH): Form I | XRPD form after heat/humidity exposure ([3]; water vapor, RT, 75% RH): Form I | XRPD form after heat/humidity exposure ([3]; water vapor, RT, 97% RH): Form I

CCc1nc(-c2ccc3c(c2)CC[C@H]3NC(=O)c2cnn(C)c2)no1 [Form IV, (R)-N-(5-(5-ethyl-1,2,4-oxadiazol-3-yl)-2,3-dihydro-1H-inden-1-yl)-1-methyl-1H-pyrazole-4-carboxamide]
relative stability of forms in competitive slurry ([4]; temperature range 2-60° C.): more stable than Form I

CCc1nc(-c2ccc3c(c2)CC[C@H]3NC(=O)c2cnn(C)c2)no1 [Forms I and IV, (R)-N-(5-(5-ethyl-1,2,4-oxadiazol-3-yl)-2,3-dihydro-1H-inden-1-yl)-1-methyl-1H-pyrazole-4-carboxamide]
XRPD form after competitive slurry ([4]; ACN, 2 ° C.): Form IV | XRPD form after competitive slurry ([4]; ACN, 25 ° C.): Form IV | XRPD form after competitive slurry ([4]; ACN, 60 ° C.): Form IV | XRPD form after competitive slurry ([4]; acetone, 2 ° C.): Form IV | XRPD form after competitive slurry ([4]; acetone, 25 ° C.): Form IV | XRPD form after competitive slurry ([4]; acetone, 60 ° C.): Form IV

Source: patent publication US20220315571A1 (Cytokinetics, Inc., priority 2019, published 2022)
